Measured values reported in ChEMBL document CHEMBL1201862, “PubChem BioAssay data set” (2004).
Values joined by “and” are separate entries in the source; they are usually repeats but may differ in a detail not shown here. Equal entries are not always repeated.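 These data come from cells grown in 96-well plates and exposed to compound for 48 hours at five concentrations. Abbreviation: GI50, concentration required for 50% inhibition of growth.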 Active and inactive are the calls of the source. Rule as the data show it: active = GI50 up to about 1.1 µM and inactive = higher.

How the values were obtained:
Assay in all cases: NCI anticancer screen, dose series, 48 h
[1] = test system: 786-0
[2] = test system: A498
[3] = test system: BT-549
[4] = test system: EKVX
[5] = test system: HCT-116
[6] = test system: HCT-15
[7] = test system: HOP-92
[8] = test system: K562
[9] = test system: KM-20L2
[10] = test system: M14
[11] = test system: MCF7
[12] = test system: MDA-MB-435
[13] = test system: Malme-3M
[14] = test system: NCI-H23
[15] = test system: SF-268
[16] = test system: SK-MEL-2
[17] = test system: SN12C
[18] = test system: SR
[19] = test system: SW-620
[20] = test system: MDA-MB-231

SMILES | GI50 [1] | GI50 [2] | GI50 [3] | GI50 [4] | GI50 [5] | GI50 [6] [µM] | GI50 [7] | GI50 [8] | GI50 [9] | GI50 [10] | GI50 [11] | GI50 [12] | GI50 [13] | GI50 [14] | GI50 [15] | GI50 [16] | GI50 [17] | GI50 [18] | GI50 [19] | GI50 [20]
CC[N+]1(C)CCC(O)(c2ccc(OC)cc2)C(C(=O)c2ccc(OC)cc2)C1 (stereo not drawn) | 3.18 µM (inactive) | 17.6 µM (inactive) | 16 µM (inactive) | 19.8 µM (inactive) | 9.27 µM (inactive) | 10.2 | 2.63 µM (inactive) | 2.25 µM (inactive) | 21.9 µM (inactive) | 8.69 µM (inactive) | 4.4 µM (inactive) | 16.8 µM (inactive) | 6.44 µM (inactive) | 17.9 µM (inactive) | 21.2 µM (inactive) | 18.8 µM (inactive) | 18.2 µM (inactive) | 2.34 µM (inactive) | 2.08 µM (inactive) | 
COc1ccc(-c2nc(SC)n(C3OC(COC(C)=O)C(OC(C)=O)C(OC(C)=O)C3OC(C)=O)c(=O)c2C#N)cc1 (stereo not drawn) | 64.3 µM (inactive) |  | > 100 µM (inactive) | > 100 µM (inactive) | > 100 µM (inactive) and 91.2 µM (inactive) | > 100 |  | > 100 µM (inactive) | 95.5 µM (inactive) | 58.1 µM (inactive) | > 100 µM (inactive) | > 100 µM (inactive) | 65.6 µM (inactive) |  |  | > 100 µM (inactive) and 73.3 µM (inactive) | 39.7 µM (inactive) | > 100 µM (inactive) | > 100 µM (inactive) | > 100 µM (inactive)
Cc1ccc(C)c(N2C(=O)C(=O)C(c3nc4ccccc4o3)/C(=N\NC(=O)c3ccccc3O)C2=O)c1 (stereo not drawn) | 27.4 µM (inactive) | 13 µM (inactive) |  | 22.8 µM (inactive) | 17.5 µM (inactive) | 18 | 41.7 µM (inactive) | 16.4 µM (inactive) | 41.1 µM (inactive) | 32.3 µM (inactive) |  |  | 66.1 µM (inactive) | 10.7 µM (inactive) | 12.2 µM (inactive) | 29.6 µM (inactive) | 26.2 µM (inactive) | 30.1 µM (inactive) | 29.6 µM (inactive) | 
O=C(O)/C(Cl)=C(\Cl)C(=O)c1ccccc1 | > 100 µM (inactive) | > 100 µM (inactive) |  | > 100 µM (inactive) | > 100 µM (inactive) | > 100 | > 100 µM (inactive) | > 100 µM (inactive) | > 100 µM (inactive) | > 100 µM (inactive) |  |  | > 100 µM (inactive) | > 100 µM (inactive) | > 100 µM (inactive) | > 100 µM (inactive) | > 100 µM (inactive) | > 100 µM (inactive) | > 100 µM (inactive) | 
CCCCC1(C2c3ccccc3Oc3ccccc32)C(=O)N(c2ccccc2)N(c2ccccc2)C1=O |  | 64.9 µM (inactive) |  | > 100 µM (inactive) | 41.3 µM (inactive) | 41.3 | 97.5 µM (inactive) | 18.9 µM (inactive) | 22.5 µM (inactive) |  | 55 µM (inactive) |  | > 100 µM (inactive) | 32.1 µM (inactive) | > 79.1 µM (inactive) | > 100 µM (inactive) | > 61.9 µM (inactive) |  | 56.6 µM (inactive) | 
NCCCNCCSP(=O)(O)O [AMIFOSTINE] |  | > 75 µM (inactive) |  | > 750 µM (inactive) | 743 µM (inactive) | > 274 | > 750 µM (inactive) | > 750 µM (inactive) | > 719 µM (inactive) |  | > 750 µM (inactive) |  | > 335 µM (inactive) | > 750 µM (inactive) | > 750 µM (inactive) | > 242 µM (inactive) | > 750 µM (inactive) |  | > 750 µM (inactive) | 
Cn1c(/C=C/CO)c(CO)c2c1C(=O)C=C(N1CC1)C2=O [APAZIQUONE] |  | < 0.0124 µM (active) |  | 0.0463 µM (active) | 0.0109 µM (active) | < 0.01 | 0.222 µM (active) | 0.0195 µM (active) | 0.0147 µM (active) |  | < 0.01 µM (active) |  | < 0.01 µM (active) |  | 0.0137 µM (active) | < 0.01 µM (active) | < 0.01 µM (active) |  | < 0.01 µM (active) | 
